{"source": "ChEMBL document CHEMBL5030565", "about": "“Stapled Peptides Targeting SARS-CoV-2 Spike Protein HR1 Inhibit the Fusion of Virus to Its Cell Receptor” (J Med Chem, 2021)", "key": {"SARS-CoV-2 [1]": {"system": "SARS-CoV-2", "assay": "Antiviral activity against SARS-CoV-2 infected in Vero E6 cells assessed as reduction in viral replication at 12.5 uM preincubated for 30 mins followed by viral infection measured after 72 hrs by crystal violet staining based plaque assay", "type": "functional, Severe acute respiratory syndrome coronavirus 2", "parameters": "scale not given: the % may be the effect or the level left"}, "SARS-CoV-2 [2]": {"system": "SARS-CoV-2", "assay": "Antiviral activity against pseudotyped SARS-CoV-2 infected in Calu-3 cells at higher concentration", "type": "functional, organism-based", "settings": "Severe acute respiratory syndrome coronavirus 2"}, "SARS-CoV-2 [3]": {"system": "SARS-CoV-2", "assay": "Antiviral activity against SARS-CoV-2 infected in Vero E6 cells assessed as reduction in viral replication preincubated for 30 mins followed by viral infection measured after 72 hrs by crystal violet staining based plaque assay", "type": "functional, organism-based", "settings": "Severe acute respiratory syndrome coronavirus 2, Vero C1008"}, "chymotrypsin": {"target": "chymotrypsin (Homo sapiens, UniProt P17538+P40313+Q6GPI1+Q99895)", "assay": "Stability of the compound in PBS at pH 7.4 assessed as chymotrypsin (unknown origin)-mediated proteolysis by measuring remaining compound after 12 hrs by HPLC analysis", "type": "ADME, protein assay", "settings": "read-out: Stability"}, "SARS-CoV-2 [4]": {"system": "SARS-CoV-2", "assay": "Antiviral activity against pseudotyped SARS-CoV-2 infected in Huh7 cells expressing hACE2 preincubated for 1 hr followed by cell infection measured after 2 days by bright-Glo luciferase assay", "type": "functional, organism-based", "settings": "Severe acute respiratory syndrome coronavirus 2, Huh-7"}, "[5]": {"target": "Spike glycoprotein (Severe acute respiratory syndrome coronavirus 2) (UniProt P0DTC2)", "assay": "Inhibition of SARS-CoV-2 spike glycoprotein expressed in HEK293T cells transfected with pAAV-CAG-HnCovS-RFP assessed as inhibition of membrane fusion to Huh-7 cells expressing hACE2 at 30 uM measured after 4 hrs by cell-cell fusion based fluorescence assay", "type": "functional"}, "SARS-CoV-2 [6]": {"system": "SARS-CoV-2", "assay": "Antiviral activity against pseudotyped SARS-CoV-2 infected in Huh7 cells expressing hACE2 at 10 uM preincubated for 1 hr followed by cell infection measured after 2 days by bright-Glo luciferase assay", "type": "functional, Severe acute respiratory syndrome coronavirus 2, Huh-7", "settings": "time 49 hrs"}}, "note": "Calls of active or inactive are those of the source. The calls are words filed in the database; no cut-off is given here.", "data": [{"smiles": "CC[C@H](C)[C@H](NC(=O)CNC(=O)[C@H](CO)NC(=O)[C@@H](NC(=O)[C@H](CC(=O)O)NC(C)=O)[C@@H](C)CC)C(=O)N[C@@H](CC(N)=O)C(=O)N[C@@H](C)C(=O)N[C@@H](CO)C(=O)N[C@H](C(=O)N[C@H](C(=O)N[C@@H](CC(N)=O)C(=O)N[C@H](C(=O)N[C@@H](CCC(N)=O)C(=O)N[C@@H](CCCCN)C(=O)N[C@@H](CCC(=O)O)C(=O)N[C@H](C(=O)N[C@@H](CC(=O)O)C(=O)N[C@@H](CCCNC(=N)N)C(=O)N[C@@H](CC(C)C)C(=O)N[C@@]1(C)CCC/C=C\\CCC[C@@](C)(C(=O)N[C@@H](CC(N)=O)C(=O)N[C@@H](CC(C)C)C(=O)N[C@@H](CC(N)=O)C(=O)N[C@@H](CCC(=O)O)C(=O)N[C@@H](CO)C(=O)N[C@@H](CC(C)C)C(=O)N[C@H](C(=O)N[C@@H](CC(=O)O)C(=O)N[C@@H](CC(C)C)C(=O)N[C@@H](CCC(N)=O)C(=O)N[C@@H](CCC(=O)O)C(=O)N[C@@H](CC(C)C)C(N)=O)[C@@H](C)CC)NC(=O)[C@H](C)NC(=O)[C@H](C(C)C)NC(=O)[C@H](CCC(=O)O)NC1=O)[C@@H](C)CC)[C@@H](C)CC)C(C)C)C(C)C", "values": [{"measurement": "Activity", "setting": "SARS-CoV-2 [1]", "value": 55, "unit": "%"}, {"measurement": "Activity", "setting": "SARS-CoV-2 [2]", "value": "Active"}, {"measurement": "EC50", "setting": "SARS-CoV-2 [3]", "value": 6.56, "unit": "µM"}, {"measurement": "remaining at 12 h", "setting": "chymotrypsin", "value": "> 80", "unit": "%"}, {"measurement": "EC50", "setting": "SARS-CoV-2 [4]", "value": 4.05, "unit": "µM"}, {"measurement": "inhibition", "setting": "[5]", "value": "Active"}, {"measurement": "Activity", "setting": "SARS-CoV-2 [6]", "value": 69.7, "unit": "%"}]}]}
